This is an account of results in patent publication US6087361A, “Aryl-imidazolines and aryl-imidazoles useful as α-2 adrenergic agonists without cardiovascular side effects” (Allergan Sales, Inc., priority 1997, dated 2000).

Read-outs that look alike come from different tables or passages of the source.

Test [1] has as its target T1, human α2C (Homo sapiens, UniProt P18825).
T1 construct: expressed in transfected cells; host or cells: CHO cells (CHO-C4)
T1 sequence (P18825 1-462): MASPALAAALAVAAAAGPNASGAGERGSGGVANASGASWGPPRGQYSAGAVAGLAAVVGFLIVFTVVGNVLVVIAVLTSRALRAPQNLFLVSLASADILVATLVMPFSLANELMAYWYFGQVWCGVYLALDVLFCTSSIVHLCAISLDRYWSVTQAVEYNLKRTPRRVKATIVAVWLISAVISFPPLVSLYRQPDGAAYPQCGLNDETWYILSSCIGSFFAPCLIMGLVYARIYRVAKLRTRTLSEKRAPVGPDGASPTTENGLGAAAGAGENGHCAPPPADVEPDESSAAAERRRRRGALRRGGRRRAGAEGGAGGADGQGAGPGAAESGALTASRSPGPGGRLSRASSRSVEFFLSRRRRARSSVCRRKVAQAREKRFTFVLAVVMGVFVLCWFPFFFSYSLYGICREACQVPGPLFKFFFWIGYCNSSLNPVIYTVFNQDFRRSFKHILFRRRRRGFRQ
As to the kind of experiment: Receptor binding, [3H]rauwolscine, CHO-C4 cells expressing human α2C. The following applies: CHO-C4, 22° C., 30 min. On the procedure:
(§1) Cell preparation: Chinese hamster ovary (CHO) cells expressing the human α2A and human α2C (CHO-C10 and CHO-C4 respectively) receptors and CHO cells (CHO-RNG) expressing the rat α2B, adrenoceptor were grown to near confluence in Dulbecco's modified Eagle's medium supplemented with 10% fetal bovine serum using standard cell culture methods. Cells were harvested by scraping and placed into cold buffer of the following composition: 50 mM Tris-HCl, 5 mM EDTA, pH 7.4). […] The pellet fraction was washed (resuspended in Tris-HCl, pH 8 buffer and centrifuged for 15-20 minutes at 49,000× g) 2 times and stored at -100° until binding assay.
(§2) Binding Studies: The radioligands [^3 H]rauwolscine (specific activity 80 Ci/mmol) and [^3 H]prazosin (specific activity 76 Ci/mmol) were obtained from New England Nuclear, Boston, Mass. Frozen membrane pellet was resuspended in 25 mM glycine/glycine, pH 7.5 and incubated with radioligand under the following conditions: CHO-C10, CHO-RNG, CHO-C4-[^3 H]rauwolscine, 22° C., 30 minutes; RKC-[^3 H]rauwolscine, 0° C., 120 minutes; and, HCC-[^3 H]prazosin, 22° C., 30 minutes in a final volume of 500 ul. At the end of the incubation period, the samples were filtered through glass filters (Whatman GF/B) in a 96 well cell harvester and rapidly washed four times with 4 mL of iced-cold 50 mM Tris-HCl buffer. The filters were then oven dried and transferred to scintillation vials containing 10 mL of Beckman's Ready Protein® scintillation cocktail for counting. […] Protein concentrations were determined with a protein assay kit from Bio Rad. Binding isotherms, equilibrium dissociation and affinity constants were analyzed and determined by the non-linear least squares curve fitting programs EBDA (BioSoft) or AccuFit Competition/Saturation by Beckman.
(§3) The radioligands [^3 H] rauwolscine (specific activity 80 Ci/mmol) and [^3 H] prazosin (specific activity 76 Ci/mmol) were obtained from New England Nuclear, Boston, Mass. Frozen membrane pellet was resuspended in 25 mM glycine/glycine, pH 7.4 and incubated with radioligand under the following conditions: CHO-C10, CHO-RNG, CHO-C4-[^3 H]rauwolscine, 22° C., 30 min.; and, HCC-[^3 H]prazowsin, 22° C., 30 minutes in a final volume of 500 ul. At the end of the incubation period, the samples were filtered through glass fiber filters (Whatman GF/B) in a 96 well cell harvester and rapidly washed four times which 4 mL of iced-cold 50 mM Tris-CHI buffer. The filters were then oven dried and transferred to scintillation vials containing 5 mL of Beckman's Ready Protein® scintillation cocktail for counting. […] Protein concentrations were determined with a protein assay kit from Bio lad. Binding isotherms, equilibrium dissociation and affinity constants were analyzed and determined by the non-linear least squares curve fitting programs AccuFit Competition/Saturation by Beckman.
(§4) Representative compounds of the present invention were tested according to the procedures given above. […] The receptor binding studies and K1 are measures of the affinity of a compound for a particular receptor.

Test [2] deals with T2, human α2A (Homo sapiens, UniProt P08913).
T2 construct: expressed in transfected cells; host or cells: CHO cells (CHO-C10)
T2 sequence (P08913 1-465): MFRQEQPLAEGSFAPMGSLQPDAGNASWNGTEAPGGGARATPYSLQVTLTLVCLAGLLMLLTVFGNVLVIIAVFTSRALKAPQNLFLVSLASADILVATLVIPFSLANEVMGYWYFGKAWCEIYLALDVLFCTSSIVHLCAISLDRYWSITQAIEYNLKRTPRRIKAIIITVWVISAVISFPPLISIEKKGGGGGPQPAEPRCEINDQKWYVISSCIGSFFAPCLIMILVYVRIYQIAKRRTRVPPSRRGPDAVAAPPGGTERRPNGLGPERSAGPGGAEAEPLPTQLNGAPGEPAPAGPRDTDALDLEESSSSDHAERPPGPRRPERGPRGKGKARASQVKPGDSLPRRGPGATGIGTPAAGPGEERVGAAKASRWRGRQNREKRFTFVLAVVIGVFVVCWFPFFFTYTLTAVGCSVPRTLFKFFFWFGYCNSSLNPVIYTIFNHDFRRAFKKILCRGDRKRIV
Kind of test: Receptor binding, [3H]rauwolscine, CHO-C10 cells expressing human α2A. The following applies: CHO-C10, 22° C., 30 min. On the procedure: as §1, §2
(§5) Cell Preparation: Chinese hamster ovary (CHO) cells expressing the human α2A (CHO-C10) and the rate α2B (CHO-RNG) […] were grown to near confluence in Dulbecco's modified Eagle's medium supplemented with 10% fetal bovine serum using standard cell culture methods. Cells were harvested by scraping and placed into cold buffer of the following composition: 50 mM Tris-HCl, 5 mM EDTA, pH 7.4). […] The pellet fraction was washed (resuspended in Tris-HCl, pH 8 buffer and centrifuged for 15-20 minutes at 49,000× g) 2 times and stored at […] until binding assay.
as §3, §4

The target of test [3] is T3, rat α2B (Rattus norvegicus, UniProt P19328).
T3 construct: expressed in transfected cells; host or cells: CHO cells (CHO-RNG)
T3 sequence (P19328 1-453): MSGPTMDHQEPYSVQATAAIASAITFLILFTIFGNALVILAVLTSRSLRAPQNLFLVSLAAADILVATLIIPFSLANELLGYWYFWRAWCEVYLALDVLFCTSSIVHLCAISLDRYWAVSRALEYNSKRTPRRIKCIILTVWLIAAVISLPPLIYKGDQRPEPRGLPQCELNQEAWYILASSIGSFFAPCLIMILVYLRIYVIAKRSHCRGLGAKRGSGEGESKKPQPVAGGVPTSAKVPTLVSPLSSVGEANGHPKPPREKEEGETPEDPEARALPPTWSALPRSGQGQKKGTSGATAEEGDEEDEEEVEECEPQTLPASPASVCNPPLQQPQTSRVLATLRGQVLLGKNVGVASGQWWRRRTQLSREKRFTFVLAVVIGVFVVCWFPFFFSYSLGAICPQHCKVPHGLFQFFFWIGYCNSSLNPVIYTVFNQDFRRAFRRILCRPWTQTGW
Kind of test: Receptor binding, [3H]rauwolscine, CHO-RNG cells expressing rat α2B. The procedure: as §1, §2, §5, §3, §4

For test [4], the target named is I2B. As to the kind of experiment: Receptor binding, I2B.
[5] abbreviates: [3H]rauwolscine, CHO-RNG, 22° C., 30 min, read-out: Ki α2B.

Broadly, the Ki is a dissociation constant, usually derived from enzyme kinetics or from competition with a known ligand. Consider `Cc1ccccc1NC1=NCCN1` [Example 1], for which the inhibition constant Ki in test [1] was 70 nM; in test [2], 8.9 nM; in test [3], 49 nM.

With `Nc1cc(Cl)c(NC2=NCCN2)c(Cl)c1` [Example 3], the Ki in test [1] worked out at 21 nM; in test [2], 2.9 nM; in test [4], 38600 nM; in test [3] (setting [5]), 4.8 nM.

On to `c1cc2c(cc1NC1=NCCN1)NCCN2` [Example 7], for which the Ki was 463 nM in test [1], 35 nM in test [2], 10000 nM in test [4] and 262 nM in test [3] (setting [5]).

For `Cc1c(NC2=NCCN2)ccc2c1NCCN2` [Example 8], the Ki in test [1] is 124 nM; in test [2], 9.6 nM; in test [4] it was 10000 nM; in test [3] (setting [5]) it was 139 nM.

For the molecule `Brc1c(NC2=NCCN2)ccc2c1NCCN2` [Example 9], the Ki in test [1] came to 120 nM; in test [2], 6.1 nM; in test [4] it was 4590 nM; in test [3] (setting [5]), 47 nM.

For `CC1CNc2c(ccc(NC3=NCCN3)c2Br)N1` (stereo not drawn) [Example 10], the Ki in test [1] worked out at 293 nM; in test [2], 24 nM; in test [4], 3260 nM; in test [3] (setting [5]), 194 nM.

In the case of `c1cc2c(cc1NC1=NCCN1)OCCO2` [Example 11], the Ki amounted to 2030 nM in test [4] and 28 nM in test [3].

Consider `COc1ccc(NC2=NCCN2)c(C)c1OC` [Example 12], for which the Ki in test [1] was 93 nM; in test [2], 5.2 nM; in test [4] it was 507 nM; in test [3] (setting [5]), 196 nM.

Regarding `Cc1c(NC2=NCCN2)ccc2c1OCCO2` [Example 13], the Ki in test [1] was found to be 3.5 nM; in test [2] it was 0.25 nM; in test [4] it was 1220 nM; in test [3], 4 nM.

Take `O=C1COc2ccc(NC3=NCCN3)cc2N1` [Example 14]: the Ki was determined as 52 nM in test [2], 6520 nM in test [4] and 842 nM in test [3] (setting [5]).

Take `Cc1c(NC2=NCCN2)ccc2c1NC(=O)CO2` [Example 15]: the Ki in test [1] came out at 134 nM; in test [2], 17 nM; in test [3] (setting [5]), 241 nM.

Regarding `Cc1c(NC2=NCCN2)ccc2c1NCCO2` [Example 16], the Ki was 8.9 nM in test [1], 1.2 nM in test [2], 12100 nM in test [4] and 30 nM in test [3] (setting [5]).

Turning to `Cc1cccc(Nc2ncc[nH]2)c1C` [Example 18], the Ki in test [1] is 180 nM; in test [2], 52 nM; in test [4], 13 nM; in test [3] (setting [5]), 295 nM.

Take `Cc1c(O)cccc1Nc1ncc[nH]1` [Example 20]: the Ki in test [1] amounted to 457 nM; in test [2], 30 nM; in test [3] (setting [5]) it was 895 nM.

`COc1c(C(C)(C)C)cc(C)c(Nc2ncc[nH]2)c1C` [Example 22]: the Ki turned out to be 88 nM in test [1], 4.9 nM in test [2], 870 nM in test [4] and 221 nM in test [3] (setting [5]).
